We go through twelve molecules from ChEMBL document CHEMBL5241050, “Using membrane perturbing small molecules to target chronic persistent infections” (RSC Med Chem, 2021).

In brackets after ≈: the same amount, converted by molar mass.

Data set [1] deals with Staphylococcus aureus. The experiment in a line: Antibacterial activity against methicillin resistant Staphylococcus aureus ATCC 33591 assessed as inhibition of bacterial growth incubated for 24 hrs by broth microdilution method. It counts as functional.
The test system of data set [2] is Staphylococcus aureus. Put plainly: Antibacterial activity against methicillin resistant Staphylococcus aureus R3889 assessed as inhibition of bacterial growth incubated for 24 hrs by broth microdilution method. It is filed as functional. In general terms: In broth dilution the organism is exposed to a series of concentrations in liquid medium.
Data set [3] deals with Staphylococcus aureus. Put plainly: Antibacterial activity against methicillin resistant Staphylococcus aureus R3890 assessed as inhibition of bacterial growth incubated for 24 hrs by broth microdilution method. It is filed as functional.
The subject of data set [4] is Pseudomonas aeruginosa. The experiment in a line: Antibacterial activity against Pseudomonas aeruginosa persistent cells assessed as fold reduction in bacterial cell at 68 ug/ml in the presence of ofloxacin relative to ofloxacin alone. It counts as functional. Particulars: dose 68 µg/ml.
The subject of a further data set is Streptococcus mutans. The experiment in a line: Antibacterial activity against wild type planktonic Streptococcus mutans UA159 assessed as inhibition of bacterial growth incubated for 20 to 24 hrs. It counts as functional. Particulars: time 20-24 hrs.
For data set [5], the system named is Staphylococcus aureus. Put plainly: Antibacterial activity against Staphylococcus aureus assessed as inhibition of bacterial growth by microplate reader analysis. It is filed as functional.
The test system of data set [6] is Pseudomonas aeruginosa. The experiment in a line: Antibacterial activity against Pseudomonas aeruginosa assessed as inhibition of bacterial growth by microplate reader analysis. It is filed as functional.
For another data set, the system named is Klebsiella pneumoniae. The experiment in a line: Antibacterial activity against Klebsiella pneumoniae assessed as inhibition of bacterial growth by microplate reader analysis. It is filed as functional.
In a further data set the test system is Acinetobacter baumannii. Put plainly: Antibacterial activity against Acinetobacter baumannii assessed as inhibition of bacterial growth by microplate reader analysis. It is filed as functional.
The subject of another data set is Enterobacter sp. The experiment in a line: Antibacterial activity against Enterobacter sp. assessed as inhibition of bacterial growth by microplate reader analysis. It counts as functional.
In a further data set the test system is Enterococcus faecium. Put plainly: Antibacterial activity against Enterococcus faecium assessed as inhibition of bacterial growth by microplate reader analysis. It is filed as functional.
The test system of data set [7] is Staphylococcus aureus. Put plainly: Antimicrobial activity against methicillin resistant Staphylococcus aureus assessed as inhibition of bacterial growth by CLSI protocol based microdilution method. It is filed as functional.
In data set [8] the test system is Staphylococcus aureus. Put plainly: Antimicrobial activity against methicillin resistant Staphylococcus aureus MW2 BAA-1707 persisters assessed as inhibition of bacterial colonies. It is filed as functional.
Data set [9] can be described thus: Hemolytic activity in human erythrocytes assessed as hemolysis incubated for 1 hrs. It is filed as toxicity, cell-based, Erythrocyte.
Data set [10] deals with Pseudomonas aeruginosa. Put plainly: Antibacterial activity against Pseudomonas aeruginosa assessed as inhibition of bacterial growth. It is filed as functional.
In data set [11] the test system is Staphylococcus aureus. The experiment in a line: Antibacterial activity against Staphylococcus aureus assessed as inhibition of bacterial growth. It counts as functional.
The subject of data set [12] is Pseudomonas aeruginosa. The experiment in a line: Antibacterial activity against Pseudomonas aeruginosa persistent cells assessed as fold reduction in bacterial cell in the presence of ofloxacin relative to ofloxacin alone. It is filed as functional.
Data set [13] relates to Staphylococcus aureus. The experiment in a line: Antibacterial activity against methicillin resistant Staphylococcus aureus MW2 assessed as inhibition of bacterial growth measured after 2 hrs. It is filed as functional.
A short description of data set [14]: Cytotoxicity against human hepatocytes assessed as reduction in cell growth by WST-1 assay. It counts as toxicity, cell-based, Hepatocyte. Particulars: read-out: LC50 (the source's name). Background: Tetrazolium assays rely on reduction of a dye to a coloured formazan, in cell work by metabolically active cells.
Data set [15] has as its system Staphylococcus aureus. Put plainly: Antimicrobial activity against vancomycin resistant Staphylococcus aureus assessed as inhibition of bacterial growth by CLSI protocol based microdilution method. It is filed as functional.
The subject of data set [16] is Staphylococcus aureus. Put plainly: Antibacterial activity against Staphylococcus aureus ATCC 9144 assessed as inhibition of bacterial growth incubated for 24 hrs. It is filed as functional.

Regarding `CCCCCCCCCCN(Cc1cccc2ccccc12)C(=O)[C@@H](N)CCCCN`, the MIC with Staphylococcus aureus [1], with Staphylococcus aureus [2] and in the data set with Staphylococcus aureus [3] was 4.1 µg/mL (≈ 9.63 µM) in each case.

For the molecule `O[C@H](CNCCc1ccc(Cl)cc1Cl)COc1ccccc1`, the “fold change (FC)” value in the data set with Pseudomonas aeruginosa [4] is listed as 7200.

As to `C=CCc1ccc(O)c(-c2ccc(O)c(CC=C)c2)c1` [HONOKIOL], the MIC in the data set on Streptococcus mutans was 66.6 µg/mL (≈ 250 µM).

For the molecule `CC(C)c1ccc(Cn2ccc3c4c(N)nc(NC5CC5)nc4ccc32)cc1`, the MIC in the data set on Staphylococcus aureus [5], in the data set with Pseudomonas aeruginosa [6], in the data set on Klebsiella pneumoniae, in the data set with Acinetobacter baumannii, in the data set with Enterobacter sp. and with Enterococcus faecium was 2 µg/mL (≈ 5.38 µM) each time.

Turning to `CC(C)(C)c1ccc(CCc2ccc(C(C)(C)C)c(O)c2)cc1O`, in the data set with Streptococcus mutans, the MIC came to 0.65 µg/mL (≈ 1.99 µM).

Regarding `O=C(O)c1c(Oc2ccc(I)cc2)c2cc(Cl)ccc2n1Cc1ccc(Cl)cc1`, the MIC with Staphylococcus aureus [7] came to 1 µg/mL (≈ 1.86 µM). Further, in the data set with Staphylococcus aureus [8], the Activity is 16 µg/mL. The HC50 at 1 h in [9] is more than 64 µg/mL.

For the molecule `CCC(C)NCC(O)Cn1c2ccc(Cl)cc2c2cc(Cl)ccc21` (configuration not stated), the MIC in the data set with Pseudomonas aeruginosa [10] and with Staphylococcus aureus [11] was 4.63 µg/mL (≈ 12.7 µM) each time.

As for `O[C@H](CNCc1ccccc1)COc1ccc(Cl)cc1Cl`, the “fold change (FC)” value in the data set with Pseudomonas aeruginosa [12] is on record as more than 2000.

For `O=C(O)c1ccc2cc(-c3ccc(O)c(C45CC6CC(CC(C6)C4)C5)c3)ccc2c1` [O-DEMETHYLATED ADAPALENE], the MIC with Staphylococcus aureus [13] was determined as 1 µg/mL (≈ 2.51 µM). Moreover, the CC50 in data set [14] is 20 µg/mL (≈ 50.2 µM). Moreover, the HC50 at 1 h in [9] was 32 µg/mL.

In the case of `Nc1nc(N)c2c(ccc3c2ccn3Cc2ccc(-c3ccccc3)cc2)n1`, the MIC in the data set on Staphylococcus aureus [5], in the data set with Pseudomonas aeruginosa [6], with Klebsiella pneumoniae, with Acinetobacter baumannii, in the data set on Enterobacter sp. and in the data set with Enterococcus faecium was 0.02 µg/mL (≈ 0.0547 µM) throughout.

As to `Oc1c(Cl)cc(Cl)cc1Sc1cc(Cl)cc(Cl)c1O` [BITHIONOL], the MIC in the data set with Staphylococcus aureus [15] came out at 0.5 µg/mL (≈ 1.4 µM). Moreover, in the data set with Staphylococcus aureus [16], the MIC50 turned out to be 8 µM (≈ 2.85 µg/mL).

For the molecule `O=C(O)c1c(Sc2ccccc2)c2cc(Cl)ccc2n1Cc1ccc(Cl)cc1`, the MIC in the data set with Staphylococcus aureus [7] is 4 µg/mL (≈ 9.34 µM). The Activity in the data set with Staphylococcus aureus [8] worked out at 64 µg/mL. Also, the HC50 at 1 h in [9] worked out at 47 µg/mL.

The term MIC denotes the lowest concentration found to suppress growth. As usually defined, the HC50 is the concentration that lyses half of the red blood cells. A word on the MIC50: it is an inhibitory concentration at the 50% level, which refers to growth in some studies and to a panel of isolates in others.
